These results are taken from patent US8628771B2, “CA IX-specific inhibitors” (Institute of Virology Slovak Academy of Sciences, priority 2002, dated 2014).

For assay [1], the system named is MDCK-CA IX cells. As to the kind of experiment: Binding of FITC-labeled sulfonamide to MDCK-CA IX cells (fluorescence microscopy). It counts as cell-based, canine. The following applies: 48 hours. The protocol: (§1) To maintain the standard conditions, the cells were always plated in 3 ml of culture medium at a density of 0.8-1×10^6 per 6 cm dish 24 hours before the transfer to hypoxia (2% O2 and 5% CO2 balanced with N2) generated in a Napco 7000 incubator. Parallel normoxic dishes were incubated in air with 5% CO2.
(§2) Compound 6 sulfonamide [4-(2-aminoethyl)-benzenesulfonamide] was from Sigma-Aldrich. […] The sulfonamides were dissolved in PBS with 20% DMSO at 100 mM concentration and diluted in a culture medium to a required final concentration just before their addition to cells. The cells were incubated for 48 hours in hypoxia and normoxia, respectively, the pH of the culture medium was measured and the binding of the FITC-labeled Compound 92 to living cells, washed three times with PBS, was viewed by a Nikon E400 epifluorescence microscope.

Assay [2] relates to SiHa cells. As to the kind of experiment: Extracellular pH (pHe) of sulfonamide-treated SiHa cells. It counts as cell-based, human. To be noted: hypoxic SiHa cells, 1 mM, 48 hours. The protocol: as §1, §2
Assay [3] deals with MDCK-CA IX cells. As to the kind of experiment: Extracellular pH (pHe) of sulfonamide-treated MDCK-CA IX cells. In kind it is cell-based, canine. The following applies: 48 hours. The protocol:
as §1, §2

Assay [4] concerns HeLa cells. Kind of assay: Binding of FITC-labeled sulfonamide to HeLa cells (fluorescence microscopy). In kind it is cell-based, human. To be noted: hypoxia versus normoxia, 48 hour incubation.
The test system of assay [5] is SiHa cells. Kind of assay: Binding of FITC-labeled sulfonamide to SiHa cells (fluorescence microscopy). It counts as cell-based, human. To be noted: hypoxia versus normoxia, 48 hour incubation.
Assay [6] has as its system HeLa cells. As to the kind of experiment: Extracellular pH (pHe) of sulfonamide-treated HeLa cells. In kind it is cell-based, human. The following applies: hypoxic HeLa cells, 1 mM, 48 hours. The protocol: as §1, §2

On to `NS(=O)(=O)c1ccc(CNC(=S)Nc2ccc3c(c2)C(=O)OC32c3ccc(O)cc3Oc3cc(O)ccc32)cc1` [Compound 92], for which the “detection of FITC-labeled compound in cells” value in assay [1] (hypoxic MDCK-CA IX cells) is given as “detected only in hypoxic MDCK-CA IX cells”; in assay [1] (normoxic MDCK-CA IX cells and mock-transfected controls) it was “absent”. Besides, the “effect on acidosis (pHe)” value in assay [2] and in assay [6] was “partially reduced” each time. In assay [3] (hypoxia (2% O2)), the “effect on extracellular acidification” value is given as “able to reduce the extracellular acidification”. Further, the “effect on the normoxic pHe” value in assay [3] (normoxia) is on record as “negligible”. In addition, the “accumulation of FITC-labeled compound in cells” value in assay [4] is “accumulated in the hypoxic HeLa and SiHa cells”; in assay [5], “accumulated in the hypoxic HeLa and SiHa cells”.
